Patent publication US10767179B2, “MicroRNA composition for the treatment of neuroblastoma” (THE BOARD OF REGENTS OF THE UNIVERSITY OF TEXAS SYSTEM, priority 2014, dated 2020)

What was measured:
Format in all cases: cell-based
BE(2)-C cells [1] = experiment: High-content screen: detection and quantification of neurite outgrowth; design: key: neurite length normalized to the mean of its plate; conditions: 25 nM miRNA mimic, 4 days transfection, normalized to plate mean
Method: FIG. 2A-2C. HCS screening of miRNA mimics identifies miRNAs that induce neurite outgrowth in BE(2)-C cells. (A-B) 2,500 cells were reverse-transfected with 25 nM miRNA mimics in 96-well plates. After 4 days transfection, relative neurite lengths were quantified as above. (A) The distribution of post-normalized neurite length measurements (grey histogram) for individual miRNA mimics from the screen and the fitted Gamma distribution curve (␣=3.27, ┘=0.444) (B) Correlation between two independent neurite length measurements for one library plate. Cells were transfected with 25 nM mimics in two independent 96-well plates. Normalized neurite lengths were measured as above. Correlation of neurite length between the two plates was analyzed using two-tailed Pearson Correlation with p<0.05 considered significant. (C) The distribution of the neurite lengths for untreated BE(2)-C cells. 2,500 Cells were plated into each well in 96 well plates. After 4 days of culture, neurite lengths were analyzed as above. Shown are the neurite length distribution histogram, the empirical density curve, and the fitted Gamma distribution curve (␣=30.23, ␣=0.033).
Detection and Quantification of Neurite Outgrowth. Cells were plated and treated in 96-well plates. For detecting neurite outgrowth, cells were placed into ZOOM IncuCyte Imaging System (Essen BioScience) and cell images were taken under 20× microscopic magnification. For detecting neurite outgrowth in a time-dependent manner, cell images were taken every 6 h. The neurite lengths associated with each treatment were calculated using the neurite definition defined for each specific cell line using the NeuroTrack system (Essen BioScience).
Analysis of HCS Data. The relative neurite length associated with cells in each well on the screen plates was determined as above. In order to allow for plate-to-plate comparison, neurite length associated with each well in each plate was first internally normalized to the mean of the corresponding plate, and multiple screen plates were then aggregated together to generate the neurite length distribution. The data were then further analyzed to determine the distribution of the unaffected cells as described below, and to identify differentiation-inducing miRNA mimics.
Statistical Analysis. For HCS, p-value for neurite length associated with each miRNA mimic was evaluated by assuming the distribution of neurite lengths follows Gamma distribution, and false Discovery Rate (FDR) was determined by Benjamini-Hochberg correction method for multiple tests (Benjamin, Journal of the Royal Statistical Society Series B (Methodological), 1995, 57(1):12). […] For all other conditions, the statistical significance for each treatment was determined using t-test by comparing the treatment group with control, with p<0.05 considered statistically significant.

BE(2)-C cells [2] = experiment: Cell Viability Assay (CellTiter-Glo)
Method: Cell Viability Assay. Cells were plated in 96-well format and treated as specified. After culturing for 120 h, cell viability was determined using the CellTiter-Glo Luminescent Cell Viability Assay (Promega).

[3] = test system: GAP43, NSE and β-TUBULIN III; experiment: Western blots of differentiation markers in BE(2)-C cells; conditions: ATRA 5 days, dose-dependent
Method: (§1) Western Blots. Cell lysates were prepared using RIPA buffer. Protein concentration was determined using the Pierce BCA assay (Thermo Fisher Scientific). For electrophoresis, equal amounts of cell lysate were resolved by SDS-PAGE and transferred to Immun-Blot PVDF membranes (Bio-Rad Laboratories). Membranes were blocked and probed with primary antibodies to specific proteins. Bound antibodies were detected with secondary antibodies conjugated with horseradish peroxidase (HRP) visualized by enhanced chemiluminescent (ECL) substrate (Pierce).

PCNA and Ki67 = experiment: Western blots of cell proliferation markers in BE(2)-C cells; conditions: ATRA 5 days, dose-dependent
Method: as §1

BE(2)-C cells [4] = experiment: High-content screen: detection and quantification of neurite outgrowth; conditions: ATRA vs carrier (DMSO), 5 days
[5] = test system: cleaved CASPASE 3 and PARP; experiment: Western blots of apoptosis markers in BE(2)-C cells; conditions: ATRA 5 days, dose-dependent
Method: as §1

With “hsa-miR-450b-3p: miRNA mimic, mature sequence UUGGGAUCAUUUUGCAUCCAUA (SEQ ID NO: 9) (listed as RNA, chemistry not given here)” the “Neurite length (mean ± SD)” value (BE(2)-C cells [1]) was 9.26 ± 2.64.

For “hsa-miR-3937: miRNA mimic, mature sequence ACAGGCGGCUGUAGCAAUGGGGG (SEQ ID NO: 17) (listed as RNA, chemistry not given here)”, the “Neurite length (mean ± SD)” value (BE(2)-C cells [1]) was 6.93 ± 1.05.

“hsa-miR-137: miRNA mimic, mature sequence UUAUUGCUUAAGAAUACGCGUAG (SEQ ID NO: 16) (listed as RNA, chemistry not given here)” was tested, and the “Neurite length (mean ± SD)” value (BE(2)-C cells [1]) was 7.03 ± 1.36.

With “hsa-miR-34a-5p: miRNA mimic, mature sequence UGGCAGUGUCUUAGCUGGUUGU (SEQ ID NO: 7) (UGGCAGUGUCUUAGCUGGUUGU(2); as printed in the source, key not given here)” the “Neurite length (mean ± SD)” value (BE(2)-C cells [1]) was 9.49 ± 3.18.

In the case of “hsa-miR-449b-5p: miRNA mimic, mature sequence AGGCAGUGUAUUGUUAGCUGGC (SEQ ID NO: 15) (AGGCAGUGUAUUGUUAGCUGGC(2); as printed in the source, key not given here)”, the “Neurite length (mean ± SD)” value (BE(2)-C cells [1]) is reported as 7.40 ± 1.85.

In the case of `CC1=C(/C=C/C(C)=C/C=C/C(C)=C\C(=O)O)C(C)(C)CCC1` [cis-RA, 13-cis retinoic acid], the “Cell viability when reaching plateau” value (BE(2)-C cells [2]; treated for 5 days) is reported as 42.6±3.7%.

For “hsa-miR-34b-Sp: miRNA mimic, mature sequence UAGGCAGUGUCAUUAGCUGAUUG (SEQ ID NO: 12) (listed as RNA, chemistry not given here)”, the “Neurite length (mean ± SD)” value (BE(2)-C cells [1]) was 8.41 ± 2.16.

For “hsa-miR-449a: miRNA mimic, mature sequence UGGCAGUGUAUUGUUAGCUGGU (SEQ ID NO: 10) (UGGCAGUGUAUUGUUAGCUGGU(2); as printed in the source, key not given here)”, the “Neurite length (mean ± SD)” value (BE(2)-C cells [1]) was 9.16 ± 2.47.

In the case of “hsa-miR-3714: miRNA mimic, mature sequence GAAGGCAGCAGUGCUCCCCUGU (SEQ ID NO: 14) (listed as RNA, chemistry not given here)”, the “Neurite length (mean ± SD)” value (BE(2)-C cells [1]) is reported as 7.56 ± 1.91.

In the case of “hsa-miR-103a-3p: miRNA mimic, mature sequence AGCAGCAUUGUACAGGGCUAUGA (SEQ ID NO: 8) (AGCAGCAUUGUACAGGGCUAUGA(3); as printed in the source, key not given here)”, the “Neurite length (mean ± SD)” value (BE(2)-C cells [1]) is reported as 9.43 ± 2.67.

“hsa-miR-135b-5p: miRNA mimic, mature sequence UAUGGCUUUUCAUUCCUAUGUGA (SEQ ID NO: 6) (listed as RNA, chemistry not given here)” was tested, and the “Neurite length (mean ± SD)” value (BE(2)-C cells [1]) was 14.02 ± 4.29.

With “hsa-miR-107: miRNA mimic, mature sequence AGCAGCAUUGUACAGGGCUAUCA (SEQ ID NO: 13) (AGCAGCAUUGUACAGGGCUAUCA(3); as printed in the source, key not given here)” the “Neurite length (mean ± SD)” value (BE(2)-C cells [1]) was 7.60 ± 1.98.

`CC1=C(/C=C/C(C)=C/C=C/C(C)=C/C(=O)O)C(C)(C)CCC1` [ATRA, all-trans retinoic acid] was tested, and the Cell viability (BE(2)-C cells [2]; 5 days, dose-dependent) was “decreases cell viability”, the “Expression of neuroblastoma differentiation markers (GAP43, NSE, β-TUBULIN III)” value [3] was “stimulates expression of neuroblastoma differentiation markers” and the “Expression of cell proliferation markers (PCNA, Ki67)” value (PCNA and Ki67) was “inhibits expression of cell proliferation markers”. The “Relative neurite length compared to control” value (BE(2)-C cells [4]) was “significantly increases the relative neurite length” and the “Expression of apoptosis markers (cleaved CASPASE 3, PARP)” value [5] was “increases expression of apoptosis markers”.
